This is an account of results in PubChem BioAssay (NCI).

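Assay format: 96-well plates, 48-hour exposure. TGI: total growth inhibition.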

Among the test systems are NCI-H460 lung; DU-145 prostate; HOP-62 NSCLC; HL-60(TB) leukemia; SNB-19 CNS; SF-295 CNS; SN12C renal; KM12 colon; OVCAR-4 ovarian; CAKI-1 renal; UACC-62 melanoma; EKVX NSCLC; TK-10 renal; SNB-75 CNS; MDA-N; SK-MEL-28 melanoma; A498 renal.
What all share (assay): NCI-60 cell line screen, 48 h

For `COc1cc(Oc2nc3c(N)cc(C(F)(F)F)cc3nc2-c2ccccc2)cc(OC)c1OC`, the TGI was more than 100 µM in the test with NCI-H460 lung; more than 100 µM in the test on DU-145 prostate; more than 46.7 µM in the test with HOP-62 NSCLC; more than 100 µM with HL-60(TB) leukemia; 27.6 µM in the test on SNB-19 CNS; more than 29 µM in the test on SF-295 CNS. In addition, the TGI in the test on SN12C renal is more than 100 µM; in the test with KM12 colon it was more than 100 µM; in the test with OVCAR-4 ovarian, more than 100 µM; in the test with CAKI-1 renal it was more than 45.2 µM; in the test on UACC-62 melanoma, 15.9 µM; in the test on EKVX NSCLC, more than 100 µM. Also, the TGI in the test with TK-10 renal was more than 100 µM; in the test on SNB-75 CNS, 26 µM; in the test with MDA-N, 3.08 µM; in the test on SK-MEL-28 melanoma, more than 68.7 µM; with A498 renal it was 81.5 µM.

Take `CCCCOCCOC1=CC(=O)c2c(O)ccc(O)c2C1=O`: the TGI in the test with NCI-H460 lung was 3.43 µM; with DU-145 prostate, 3.17 µM; with HOP-62 NSCLC, 1.8 µM; in the test with HL-60(TB) leukemia, 2.99 µM; with SNB-19 CNS, 3.12 µM; with SF-295 CNS, 3.02 µM. For the same compound, the TGI in the test on SN12C renal stood at 3.03 µM; with KM12 colon it was 3.14 µM; with OVCAR-4 ovarian it was 3.33 µM; with CAKI-1 renal, 3.23 µM; in the test with UACC-62 melanoma it was 2.98 µM; with EKVX NSCLC, 3.08 µM. The TGI in the test on TK-10 renal is 4.8 µM; in the test with SNB-75 CNS it was 2.91 µM; in the test on MDA-N, 0.341 µM; in the test on SK-MEL-28 melanoma, 3 µM; in the test on A498 renal, 3 µM.

Take `Cc1ccc(S(=O)(=O)n2c3c(c4ccccc42)CCN2CCC(Br)C[C@@H]32)cc1` (stereo not given in full): the TGI in the test on NCI-H460 lung was found to be 30.1 µM; in the test with DU-145 prostate it was 29.1 µM; in the test on HOP-62 NSCLC it was 28.5 µM; with HL-60(TB) leukemia, 17.4 µM; in the test on SNB-19 CNS, 28.7 µM; in the test on SF-295 CNS, 23.1 µM. Further, the TGI in the test on KM12 colon was determined as 21.1 µM; in the test with OVCAR-4 ovarian, 27 µM; in the test on CAKI-1 renal, 28.6 µM; with UACC-62 melanoma, 25.3 µM; with EKVX NSCLC, 38.1 µM; in the test with TK-10 renal it was 29.4 µM. Moreover, the TGI in the test with SNB-75 CNS came to 25.4 µM; in the test with MDA-N it was 15.8 µM; in the test on SK-MEL-28 melanoma, 24.5 µM; in the test with A498 renal it was 41 µM.

On to `O=C(O)CC1OCC=C2CN3CCC45C6=CC(=O)C(=O)C([N+](=O)[O-])=C6NC4C1C2CC35` (stereo not given), for which the TGI in the test with NCI-H460 lung, with DU-145 prostate, with HOP-62 NSCLC, with HL-60(TB) leukemia, in the test with SNB-19 CNS and in the test on SF-295 CNS was more than 100 µM throughout. The TGI with SN12C renal, in the test on KM12 colon, with OVCAR-4 ovarian, in the test with CAKI-1 renal, in the test on UACC-62 melanoma and in the test on EKVX NSCLC was more than 100 µM each time. Besides, the TGI with TK-10 renal, with SNB-75 CNS, in the test with MDA-N, in the test with SK-MEL-28 melanoma and with A498 renal was more than 100 µM in each case.

`CCOc1cc2c(cc1OC(C)=O)C(=O)CC[C@H]1C3CC[C@H](OC(C)=O)[C@@]3(C)CC[C@H]21` (stereo not given in full): the TGI with NCI-H460 lung, in the test with DU-145 prostate, in the test with HOP-62 NSCLC, in the test on HL-60(TB) leukemia, in the test on SNB-19 CNS and in the test with SF-295 CNS was more than 100 µM each time. The TGI in the test with KM12 colon, with OVCAR-4 ovarian, with CAKI-1 renal, in the test on UACC-62 melanoma, in the test on EKVX NSCLC and in the test with TK-10 renal was more than 100 µM each time. Further, the TGI with SNB-75 CNS, in the test with MDA-N, with SK-MEL-28 melanoma and in the test with A498 renal was more than 100 µM throughout.

Turning to `CCOC(=O)Nc1nn(C)c(=NCc2ccccc2)s1`, the TGI in the test on NCI-H460 lung, in the test on DU-145 prostate, in the test with HOP-62 NSCLC, in the test with HL-60(TB) leukemia, with SNB-19 CNS and in the test with SF-295 CNS was more than 100 µM throughout. In addition, the TGI in the test with SN12C renal, with KM12 colon, in the test on OVCAR-4 ovarian, in the test with CAKI-1 renal, in the test with UACC-62 melanoma and with EKVX NSCLC was more than 100 µM in each case. The TGI with TK-10 renal, with SNB-75 CNS, with MDA-N, in the test with SK-MEL-28 melanoma and in the test with A498 renal was more than 100 µM each time.

For the compound `NC(=O)NC(=O)c1cccc(NC(=O)CF)c1`, the TGI in the test on NCI-H460 lung, in the test on DU-145 prostate, with HOP-62 NSCLC, in the test with HL-60(TB) leukemia, in the test with SNB-19 CNS and in the test with SF-295 CNS was more than 100 µM throughout. Moreover, the TGI in the test with SN12C renal, in the test on KM12 colon, in the test with OVCAR-4 ovarian, with CAKI-1 renal, in the test on UACC-62 melanoma and in the test with EKVX NSCLC was more than 100 µM in each case. Moreover, the TGI in the test on TK-10 renal, in the test on SNB-75 CNS, with MDA-N, in the test on SK-MEL-28 melanoma and in the test with A498 renal was more than 100 µM each time.

As to `COC(=O)[C@@]12C(=O)C(C)C(=O)[C@]1(C)C(C)=C[C@H]1[C@]3(C=O)CC[C@H](OC(C)=O)C(C)(C)[C@H]3CC[C@@]12C` (stereo not given in full), the TGI in the test with NCI-H460 lung is more than 100 µM; in the test on DU-145 prostate, more than 100 µM; in the test with HOP-62 NSCLC it was more than 100 µM; in the test with HL-60(TB) leukemia, 52.3 µM; in the test with SNB-19 CNS it was more than 100 µM; in the test with SF-295 CNS, more than 100 µM. For the same compound, the TGI with KM12 colon, in the test with OVCAR-4 ovarian, with CAKI-1 renal, in the test on UACC-62 melanoma, in the test on EKVX NSCLC and in the test on TK-10 renal was more than 100 µM throughout. For the same compound, the TGI in the test on SNB-75 CNS, in the test with MDA-N, in the test on SK-MEL-28 melanoma and with A498 renal was more than 100 µM throughout.

As for `O=C1Nc2ccccc2/C1=C/c1c(Cl)[nH]c2ccc(O)cc12`, the TGI with NCI-H460 lung is 13.9 µM; with DU-145 prostate, 6.69 µM; with HOP-62 NSCLC, 19.1 µM; with HL-60(TB) leukemia, 5.31 µM; with SNB-19 CNS it was more than 58.8 µM; in the test with SF-295 CNS, more than 25.5 µM. For the same compound, the TGI was found to be 5.22 µM in the test on SN12C renal; 15.6 µM with KM12 colon; 38.5 µM with OVCAR-4 ovarian; 36 µM in the test on CAKI-1 renal; 6.04 µM in the test on UACC-62 melanoma; 22.5 µM in the test with EKVX NSCLC. Also, the TGI with TK-10 renal turned out to be 37.1 µM; with SNB-75 CNS, 12.4 µM; with MDA-N it was 1.6 µM; in the test on SK-MEL-28 melanoma, 22.5 µM; in the test on A498 renal it was 11.3 µM.
